These results are taken from patent EP0888346B1, “CORALYNE ANALOGS AS TOPOISOMERASE INHIBITORS” (RUTGERS, THE STATE UNIVERSITY OF NEW JERSEY, priority 1996, dated 1997).

≈ marks a conversion by molar mass, not a printed value. Where “and” joins values, the source holds several entries; their conditions need not be identical. Identical values can stand only once.

Assay [1] concerns calf thymus topoisomerase II. Put plainly: Topo II cleavage assay (plasmid YEpG DNA). The following applies: concentration relative to VM-26 = 1 producing the same cleavage on the plasmid DNA. Format: biochemical.
Assay [2] concerns glioblastoma cell line SF-268. Briefly: MTA cytotoxicity assay, glioblastoma cells. Format: cell-based. The following applies: Homo sapiens, SF-268, 96 h, read-out: Cytotoxicity SF-268. As to the method: (§1) The results were plotted and the IC50 then measured.
(§2) The coralyne analog 7c was tested for its effectiveness against glioblastoma cells. The assay used was similar to that described above for the RPMI-8402 cell line. The results are shown in table 2 below which compares the effect of Compound 7c against the leukemia cell line (RPMI 8402), epidermal carncinoma (KB3-1) and glioblastoma (SF-268): Table 2

Assay [3] deals with human epidermoid carcinoma KB 3-1 cell line. Put plainly: MTA cytotoxicity assay, epidermoid carcinoma cells. Format: cell-based. The following applies: KB 3-1, 96 h, read-out: Cytotoxicity KB3-1. How it is done:
as §1, §2

Another assay addresses T1, human topoisomerase I (Homo sapiens, UniProt P11387).
T1 construct: 15 amino acid vector-derived fusion (pET-11a leader); made in house; host or cells: E. coli BL21(DE3)
T1 sequence (P11387 1-765): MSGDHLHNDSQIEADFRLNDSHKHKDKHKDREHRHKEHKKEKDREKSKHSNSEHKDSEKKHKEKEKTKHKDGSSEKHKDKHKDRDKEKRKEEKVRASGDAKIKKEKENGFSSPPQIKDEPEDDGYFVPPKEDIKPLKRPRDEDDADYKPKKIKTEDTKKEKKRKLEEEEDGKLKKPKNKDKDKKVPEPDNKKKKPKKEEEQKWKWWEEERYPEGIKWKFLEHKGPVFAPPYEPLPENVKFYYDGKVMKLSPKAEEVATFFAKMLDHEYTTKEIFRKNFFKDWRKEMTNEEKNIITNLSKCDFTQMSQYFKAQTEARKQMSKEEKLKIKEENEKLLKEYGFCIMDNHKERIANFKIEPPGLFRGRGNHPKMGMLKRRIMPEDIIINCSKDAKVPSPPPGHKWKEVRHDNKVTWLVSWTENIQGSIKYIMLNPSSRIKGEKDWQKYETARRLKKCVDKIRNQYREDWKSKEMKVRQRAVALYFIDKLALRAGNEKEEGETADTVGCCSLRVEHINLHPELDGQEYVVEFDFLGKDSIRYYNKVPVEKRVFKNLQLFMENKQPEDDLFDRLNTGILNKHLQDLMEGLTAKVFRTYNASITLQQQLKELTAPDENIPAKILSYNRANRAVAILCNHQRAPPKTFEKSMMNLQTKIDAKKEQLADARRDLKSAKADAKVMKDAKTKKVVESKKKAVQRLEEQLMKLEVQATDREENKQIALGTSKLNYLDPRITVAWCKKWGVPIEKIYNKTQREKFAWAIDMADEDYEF
Put plainly: Topo I cleavage assay (plasmid YEpG DNA). Format: biochemical.

Take `CC[C@@]1(O)C(=O)OCc2c1cc1n(c2=O)Cc2cc3ccccc3nc2-1` [CPT, camptothecin, reference compound]: in assay [1], the “Topo II-mediated DNA cleavage (REC, Relative Effective Concentration)” value was greater than 1000. The results for the IC50 in assay [2] and in assay [3] were 5 ng/mL (≈ 0.0144 µM) and 4 ng/mL (≈ 0.0115 µM), respectively. Further, at human topoisomerase I (concentration relative to camptothecin (CPT) = 1 producing the same cleavage on the plasmid DNA), the “Topo I-mediated DNA cleavage (REC, Relative Effective Concentration)” value stood at 1. At human topoisomerase I (read-out: concentration giving total cleavage of DNA in the presence of topoisomerase I), the EC (total cleavage) was 0.29 µM and 0.1 µg/mL.
